Test results published in ChEMBL document CHEMBL3763058, “Design, RNA cleavage and antiviral activity of new artificial ribonucleases derived from mono-, di- and tripeptides connected by linkers of different hydrophobicity” (Bioorg Med Chem, 2016).
pIC50: −log10 of the molar value. The source made the active and inactive calls. The calls are words filed in the database; no cut-off is given here.

How the values were obtained:
[1] = system: Human immunodeficiency virus 1; experiment: Binding affinity to HIV1 5'-[32P]ON21 RNA in Tris-Hcl buffer assessed as RNA cleavage rate constant for 5 hrs at pH 7.5
[2] = system: Human immunodeficiency virus 1; experiment: Binding affinity to HIV1 5'-[32P]ON21 RNA assessed as viral RNA cleavage at 1 mM measured after 3 and 7 hrs relative to control
[3] = system: Human immunodeficiency virus 1; experiment: Binding affinity to HIV1 5'-[32P]HIV96 RNA assessed as time of half viral RNA cleavage of at 1 mM
[4] = system: Human immunodeficiency virus 1; experiment: Binding affinity to HIV1 5'-[32P]HIV96 RNA assessed as viral RNA cleavage at 1 mM measured after 3 and 7 hrs relative to control
[5] = system: Human immunodeficiency virus 1; experiment: Binding affinity to HIV1 5'-[32P]HIV96 RNA assessed as viral RNA cleavage rate constant at 1 mM
[6] = system: Human immunodeficiency virus 1; experiment: Binding affinity to HIV1 5'-[32P]ON21 RNA in cacodylate buffer assessed as RNA cleavage rate constant for 3 hrs at pH 6.2 to 7.2
Influenza A virus [7] = experiment: (§1) Antiviral activity against Influenza A virus (A/WSN/33(H1N1)) infected in MDCK cells assessed as reduction in viral titer compound preincubated with virus for 24 hrs followed by host cell infection measured after 24 hrs by AEC staining based inverted microscopic analysis; type: functional, organism-based; details: A/WSN/1933(H1N1)
MDCK = experiment: Cytotoxicity against MDCK cells assessed as reduction in cell viability after 24 hrs by MTT assay; type: cell-based; details: Canis lupus familiaris
Influenza A virus [8] = experiment: as §1, with “as” for “as reduction in”, “titer at 0.1 mM” for “titer”, “after 18” for “after 24”, “analysis (reference value: 5.2 log10 FFU/ml)” for “analysis”; type: functional, A/WSN/1933(H1N1)
Influenza A virus [9] = experiment: as §1, with “as” for “as reduction in”, “titer at 1 mM” for “titer”, “after 18” for “after 24”, “analysis (reference value: 5.2 log10 FFU/ml)” for “analysis”; type: functional, A/WSN/1933(H1N1)
Influenza A virus [10] = experiment: as §1, with “titer at 0.001 to 4 mM” for “titer”, “after 18” for “after 24”, “analysis relative to control” for “analysis”; type: functional, A/WSN/1933(H1N1)
Influenza A virus [11] = experiment: (§2) Antiviral activity against Influenza A virus (A/WSN/33(H1N1)) infected in MDCK cells assessed as reduction in viral titer at 4 mM compound preincubated with virus for 24 hrs followed by host cell infection measured after 18 hrs by AEC staining based inverted microscopic analysis; type: functional, A/WSN/1933(H1N1)
Influenza A virus [12] = experiment: as §2, with “as” for “as reduction in”, “at 2” for “at 4”, “analysis (reference value: 5.2 log10 FFU/ml)” for “analysis”; type: functional, A/WSN/1933(H1N1)
Influenza A virus [13] = experiment: as §2, with “as” for “as reduction in”, “at 0.2” for “at 4”, “analysis (reference value: 5.2 log10 FFU/ml)” for “analysis”; type: functional, A/WSN/1933(H1N1)
Influenza A virus [14] = experiment: as §2, with “as” for “as reduction in”, “analysis (reference value: 5.2 log10 FFU/ml)” for “analysis”; type: functional, A/WSN/1933(H1N1)
Influenza A virus [15] = experiment: as §2, with “as” for “as reduction in”, “at 0.5” for “at 4”, “analysis (reference value: 5.2 log10 FFU/ml)” for “analysis”; type: functional, A/WSN/1933(H1N1)
Influenza A virus [16] = experiment: Antiviral activity against Influenza A virus (A/WSN/33(H1N1)) infected in MDCK cells assessed as reduction in viral titer at 2 mM compound preincubated with virus for 24 hrs followed by host cell infection measured after 18 hrs by AEC staining based inverted microscopic analysis relative to control; type: functional, A/WSN/1933(H1N1)

| Structure (SMILES) | Activity [1] | Activity [2] | TIME [3] | Activity [4] | K [5] | Activity [6] | Activity (Influenza A virus [7]) | pIC50 (MDCK) | Activity (Influenza A virus [8]) | Activity (Influenza A virus [9]) | fold change (FC) (Influenza A virus [10]) | fold change (FC) (Influenza A virus [11]) | Activity (Influenza A virus [12]) | Activity (Influenza A virus [13]) | Activity (Influenza A virus [14]) | Activity (Influenza A virus [15]) | fold change (FC) (Influenza A virus [16]) |
| --- | --- | --- | --- | --- | --- | --- | --- | --- | --- | --- | --- | --- | --- | --- | --- | --- | --- |
| NCCCC[C@H](NC(=O)CCc1c[nH]cn1)C(=O)NCCCOCCCCOCCCNC(=O)[C@H](CCCCN)NC(=O)CCc1c[nH]cn1 | Active | 29% | 8 h | 44% | 0.076 h⁻¹ | inactive |  |  |  |  |  |  |  |  |  |  |  |
| N[C@@H](CCC(=O)O)C(=O)NCCCCCC(=O)N[C@@H](CO)C(=O)NCCCOCCCCOCCCNC(=O)[C@H](CO)NC(=O)CCCCCNC(=O)[C@@H](N)CCC(=O)O |  | 18% | 17 h | 23% | 0.033 h⁻¹ |  |  |  |  |  |  |  |  |  |  |  |  |
| NCCCC[C@H](NCCCCCNC(=O)[C@@H](N)CCC(=O)O)C(=O)NCCCCCCCCCCCCNC(=O)[C@H](CCCCN)NC(=O)CCCCCNC(=O)[C@@H](N)CCC(=O)O |  | 35% | 3 h | 55% | 0.254 h⁻¹ | Active | Dose-dependent effect | 3.30 | 3.8 log10FFU/ml | 3.7 log10FFU/ml | 1.5 | 1.5 |  |  |  |  |  |
| NCCCC[C@H](N)C(=O)NCCCCCC(=O)N[C@@H](CO)C(=O)NCCCOCCCCOCCCNC(=O)[C@H](CO)NC(=O)CCCCCNC(=O)[C@@H](N)CCCCN |  | 11% | > 24 h | 10% | 0.005 h⁻¹ |  |  |  |  |  |  |  |  |  |  |  |  |
| O=C(/C=C/c1c[nH]cn1)N[C@@H](CCCCNC(=O)OCc1ccccc1Cl)C(=O)NCCCOCCCCOCCCNC(=O)[C@H](CCCCNC(=O)OCc1ccccc1Cl)NC(=O)/C=C/c1c[nH]cn1 |  | 42% | 7 h | 52% | 0.11 h⁻¹ |  | Dose-dependent effect | 3.15 |  |  |  |  | 4 log10FFU/ml | 4.5 log10FFU/ml |  |  |  |
| N[C@@H](CO)C(=O)NCCCOCCCCOCCCNC(=O)[C@@H](N)CO |  | 3% | > 24 h | 6% | 0.002 h⁻¹ |  |  |  |  |  |  |  |  |  |  |  |  |
| N[C@@H](CCC(=O)OCc1ccccc1)C(=O)NCCCCCCCCCCCCNC(=O)[C@@H](N)CCC(=O)OCc1ccccc1 |  | 45% | 9 h | 18% | 0.053 h⁻¹ |  | Dose-dependent effect | < 2.30 |  |  |  |  | 2.3 log10FFU/ml | 4.4 log10FFU/ml | <1 log10FFU/ml |  |  |
| N[C@@H](CCC(=O)O)C(=O)NCCCCCCCCCCCCNC(=O)[C@@H](N)CCC(=O)O |  | 39% | 2 h | 60% | 0.276 h⁻¹ | Active | Dose-dependent effect | < 2.30 |  | <1 log10FFU/ml | 1.5 |  |  | 4.8 log10FFU/ml |  | 2.1 log10FFU/ml |  |
| NCCCC[C@H](N)C(=O)NCCCCCCCCCCCCNC(=O)[C@@H](N)CCCCN |  | 8% | 7 h | 24% | 0.07 h⁻¹ |  |  |  |  |  |  |  |  |  |  |  |  |
| N=C(N)NCCC[C@H](N)C(=O)NCCCOCCCCOCCCNC(=O)[C@@H](N)CCCNC(=N)N |  | 25% | 10 h | 38% | 0.062 h⁻¹ |  |  |  |  |  |  |  |  |  |  |  |  |
| N[C@@H](CO)C(=O)NCCCCCCCCCCCCNC(=O)[C@@H](N)CO |  | 13% | 6 h | 28% | 0.079 h⁻¹ |  |  |  |  |  |  |  |  |  |  |  |  |
| NCCCC[C@H](N)C(=O)NCCCOCCCCOCCCNC(=O)[C@@H](N)CCCCN |  | 8% | 20 h | 19% | 0.011 h⁻¹ |  |  |  |  |  |  |  |  |  |  |  |  |
| NCCCC[C@H](NC(=O)CCCCCNC(=O)[C@@H](N)CCC(=O)O)C(=O)NCCCOCCCCOCCCNC(=O)[C@H](CCCCN)NC(=O)CCCCCNC(=O)[C@@H](N)CCC(=O)O |  | 33% | 6 h | 57% | 0.082 h⁻¹ |  | Dose-dependent effect | 3.70 |  |  | 1.5 |  | 2.2 log10FFU/ml | 4.9 log10FFU/ml |  |  | 3 |
